These results are taken from US11357774B2, “Use of a quinoline sulfonyl compound for treatment of inflammation, inflammatory disorders, autoimmune disorders and malaria” (priority 2019, dated 2022).

One data set deals with THP-1 monocytic cells. Kind of data set: Sulforhodamine B (SRB) assay, IC50 on THP-1 cells. Type of data set: cell-based, human. The procedure: The sulforhodamine B (SRB) assay^21 was used to determine the drug concentration that half of the cell growth/viability is inhibited (IC50). Cells were cultured in 96-well plates, with 5,000 cells in 100 μL of culture medium per well. The rest of the protocol was the same as described previously^22,23.
Data shown in Table 1 are IC50 values of VR23 and other compounds, which were determined using sulforhodamine B (SRB) assays on immunologically relevant cells (THP-1, SW-982 and PBMC). […] Two well-known proteasome inhibitors, BTZ and CFZ, were included for comparison since VR23 is also a proteasome inhibitor, albeit targeting different subunits^2. The widely used anti-inflammatory DEX was included, also for comparison.
THP-1, SW982 and PBMC cells (5,000 cells/well) were treated with each compound for 48 hours. The IC50, the drug concentration reducing cell growth/viability by 50%, was determined by a dose-response four-parameter curve (generated with GraphPad Prism V. 4.02) formed by 10 two-fold dilutions (n=3).
(The SRB assay estimates cell density from bound dye.)

The next data set relates to THP-1 cells. Kind of data set: CCK-8 cell viability, THP-1 cells. Type of data set: cell-based. As to conditions: THP-1, 6 hours with LPS 5 μg/mL or TNF-α 10 ng/mL; VR23 3 μM, BTZ 6 nM, CFZ 1 nM, DEX 2 μM. The procedure:
(§1) Dunnett's test was performed to assess if there are significant differences in cell viability compared to the non-treatment control group. The values presented are mean±SEM (n=3).
(§2) The CCK-8 assay was used to count viable cells under the various treatment conditions. Briefly, cells were cultured in 11 columns of a 96-well clustered plate, with 5,000 cells in 100 μL of culture medium per well, excluding one column for a media-only control. The plate was incubated overnight at 37° C. in the humidified conditions, followed by treatment with test compounds diluted in the culture medium (10 μL). Each column was treated with a different condition so that each treatment could have 8 repeats. […] The absorbance was measured using an automatic plate reader (Synergy H4 Hybrid Multi-Mode Microplate Reader, BioTek, Montreal, Canada) at 450 nm wavelength. The cell viability of each treatment sample was determined by using the following equation (%)=(Abstrtmt-Absmedia)/(AbsuT-Absmedia)*100, where Abstrtmt is the absorbance value of cells with the various treatment conditions; Absmedia is the absorbance of the well containing media only; AbsuT is the absorbance of the wells with untreated cells. […]

For another data set, the system named is SW-982 cells. The data set can be described thus: CCK-8 cell viability, SW-982 cells. As to conditions: SW-982, 6 hours with IL-1β 1 ng/mL; VR23 5 μM, HCQ 30 μM. Type of data set: cell-based. The procedure:
as §1, §2

The subject of data set [1] is myeloperoxidase (MPO) activity in right lung tissues. The data set can be described thus: Myeloperoxidase assay in lung tissues of mice with LPS-induced ALI. Format: in vivo, mouse. The conditions noted are these: LPS 0.4 mg/kg, 24 hours, VR23 30 mg/kg intraperitoneally. The procedure: Six to eight week old female BALB/c mice strain 028 (Charles River Laboratories, QC, Canada) were fed regularly with laboratory chow and water upon arrival at the Laurentian University Animal Care Facility (Sudbury, ON, Canada). To determine a useful dose of LPS, three mice per group were treated for 24 hours with the following three different conditions: (i) no LPS, (ii) 0.25 mg of LPS per kg of body weight, and (iii) 0.50 mg of LPS per kg of body weight. The different concentrations of LPS were administered intranasally to the three BALB/c mice per concentration. After the animals were sacrificed, the bronchoalveolar lavage fluid (BALF) of each mouse was collected and analyzed for LPS-induced inflammatory responses. […] Experimental design involving the use of VR23 was based on a previous acute lung injury (ALI) instillation by Wei and Huang^26. Briefly, mice were divided into 5 groups, with 3-5 mice per group: no lung injury (i.e., no treat), sham treated, LPS-only, LPS+DEX, and LPS+VR23. […] Bronchoalveolar lavage fluid was collected and the number of cells infiltrated into the bronchoalveolar fluid were counted (FIG. 2). […]
The accumulation of neutrophils in the lung tissues was analyzed with a colorimetric MPO assay kit (Sigma Aldrich), which measures the amount of myeloperoxidase activity^26. […] The MPO activity was then determined as per the protocol provided by the supplier. […]

Data set [2] addresses β2 subunit of the proteasome 20S catalytic unit (Homo sapiens, UniProt Q99436). The conditions noted are these: cited from earlier work.
Data set [3] has as its system cancer over non-cancer cells. As to conditions: in vitro studies; cited from earlier work.

For orientation: IC50 means the concentration at which inhibition is half-maximal. High values mean lower potency, low ones higher potency. In the case of `O=[N+]([O-])c1ccc(S(=O)(=O)N2CCN(c3ccnc4cc(Cl)ccc34)CC2)c([N+](=O)[O-])c1` [VR23, 7-chloro-4-(4-(2,4-dinitrophenylsulfonyl)piperazin-1-yl)quinoline], the IC50 with THP-1 monocytic cells (48 hours) was determined as 2.58 ± 0.5 µM; with THP-1 monocytic cells (Homo sapiens, THP-1, 48 h), 3 µM. In addition, the “cell viability (CCK-8)” value with THP-1 cells and with SW-982 cells was “did not significantly differ from the untreated cells” in each case. The “myeloperoxidase (MPO) in lung tissues” value in data set [1] is “strong inhibitor of MPO”. Moreover, the proteasome inhibition entry in data set [2] is “strong proteasome inhibitor”. Moreover, in data set [3], the “selectivity of cell killing” value is recorded as “preferentially kills cancer over non-cancer cells”.
